# Reference: patent US20040048747A1, “Product formulation and method of its application for increasing the efficiency of systemic herbicides” (priority 2000, published 2004)
# Experiments:
# Type in all cases: in vivo
# [1] = system: dandelion (Taraxacum cordátum Palmgr.); experiment: Greenhouse pot spray test, selected formates with selected systemic herbicides (Example 3), dandelion; conditions: for desiccation of the leaves / damage (necrosis): formates 3000 ml (g) per decar, 6, 14 and 21 days after spraying
# Procedure: Potassium diformate in a 50% water/volume solution (coded K-diform in the enclosed graphs). Potassium formate (50% w/v) (coded K-form in the enclosed graphs). Solid calcium formate solid was dissolved in water and coded Ca-form in the enclosed graphs. Dose rates applied were: 0 and 3000 ml (g) per decar (10^3 m^2).
# “Roundup Bio” (360 gram/litre glyphosate), “Arsenal 250” (250 gram/litre imazapyr) and “Titus” (250 gram/kg rimsulfuron). The herbicides were applied at dose rates: 10%-40% of full rate:
# Adjuvant: 0.1% wetting agent (“DP-spredemiddel”)
# The formates, herbicides and adjuvants were mixed before spraying and applied at a calculated spray volume of 50 litre per decar (10^3 m^2). Seven pots were given each treatment.
# The investigations were done on dandelion (Taraxacum cordátum Palmgr.):
# The dandelion seeds were sown June 20 and transplanted to 13 cm plastic pots, one plant per pot. The plants were raised in a greenhouse. The spraying was carried out August 1 and the plants kept in greenhouse until harvest. Greenhouse conditions: 20-25° C. in 16 hrs, 14° C. in 8 hrs. Day length: 16 hrs artificial light.
# Assessments of damage (necrosis): 6, 14 and 21 days after treatment (DAT). Regrowth and fresh weight were assessed 21 days after spraying.
# Poa annua = experiment: Greenhouse pot spray test, potassium diformate and glyphosate combinations (Example 1), Poa annua; conditions: glyphosate alone, compared with the combination
# Excerpt: (§1) The aim of this experiment was to investigate if a small dose of glyphosate, a foliage applied systemic herbicide, could extend the herbicide effect of potassium diformate. This is in particular important in perennial weeds, but also to have a complete kill of annual weeds.
# (§2) Control of annual weeds will be essential in garden paths, roads, roadsides and other areas covered with gravel, bricks or flag stones. The weed must be totally killed since there is no competition from crop plants like in crop use situations. The aim of the experiment in greenhouse was to find methods to have optimal herbicide effect of K-diformate on different weed species and rape, which served as a model weed.
# (§3) Seeds were sown in trays, and 2 seedlings were transplanted to 12 cm pots. The soil used was a mixture of 84% sphagnum, 10% sand and 6% clay. The pH was 5.8 and the soil was amended with balanced nutrients.
# (§4) The temperature was set to 20° C. for 16 hours, 14° C. for 8 hours, but it varied ±3° C. Light period followed the natural day lengths, but artificial light was supplied 16 hours per day.
# (§5) A wetting agent (0.1%) was used in order to secure complete contact with the plants to be treated. […]
# (§6) Damage or injury of the plants was visually assessed after the following scale: […]
# [2] = system: Dandelion (Taráxacum cordátum); experiment: Greenhouse pot spray test, potassium diformate and glyphosate combinations (Example 1), dandelion; conditions: glyphosate alone, compared with the combination
# Excerpt: as §1, §2, §3, §4, §5, §6
Structure (SMILES),desiccation of the leaves / damage (necrosis) [1],herbicide effect (speed and efficiency) (Poa annua),herbicide effect (speed and efficiency) [2],"regrowth after mixing herbicide with formate ([1]; 21 days after spraying, lowest dose rates of Roundup and Titus, compared between formates)"
"O=C[O-].O=C[O-].[Ca+2] [Ca-formate, calcium formate]",even less effective than K-formate,–,–,–
"O=C[O-].[K+] [K-formate, Potassium formate]",less effective,–,–,–
O=C(O)CNCP(=O)(O)O [glyphosate],–,much slower and very much less efficient,much slower and very much less efficient,–
O=CO.O=C[O-].[K+] [potassium diformate],desiccated the leaves quickly,–,–,higher after mixing with K-diformate than mixing with Ca- or K-formate
